Where two headings read alike, the source gives them in different places.
Experiment: in vivo
Conditions: for concentration at 1 day / concentration at 7 day: male, Wistar Han, rat; for concentration at 7 day: day 7
Outline: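 Three male Wistar Han rats (200-250 g), not fasted, received a single intramuscular gastrocnemius injection of prodrug suspension at 20 mg/kg EFdA equivalent. Tail-vein blood was taken into NaF/Na2EDTA, mixed 1:1 with 100 mM ammonium acetate pH 4, frozen, and analysed by LC-MS/MS.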

[1] = day 14, single IM Example 9B 20 mg/kg equivalent of EFdA
[2] = day 21, single IM Example 9B 20 mg/kg equivalent of EFdA
[3] = day 28, single IM Example 9B 20 mg/kg equivalent of EFdA
[4] = day 21, single IM Example 16A 20 mg/kg equivalent of EFdA
[5] = day 28, single IM Example 16A 20 mg/kg equivalent of EFdA

Structure (SMILES) | Mean concentration of EFdA [1] | Mean concentration of Example 9B [1] | Mean concentration of EFdA [2] | Mean concentration of Example 9B [2] | Mean concentration of EFdA [3] | Mean concentration of Example 9B [3] | concentration at 1 day (whole blood, intramuscular, day 1, single IM Example 9B 20 mg/kg equivalent of EFdA, read-out: Mean concentration of Example 9B) | concentration at 7 day (whole blood, intramuscular, single IM Example 9B 20 mg/kg equivalent of EFdA, read-out: Mean concentration of Example 9B) | Mean concentration of EFdA (day 1, single IM Example 16A 20 mg/kg equivalent of EFdA) | Mean concentration of Example 16A (day 14, single IM Example 16A 20 mg/kg equivalent of EFdA) | Mean concentration of EFdA [4] | Mean concentration of Example 16A [4] | Mean concentration of EFdA [5] | Mean concentration of Example 16A [5] | concentration at 1 day (in vivo, day 1, single IM Example 16A 20 mg/kg equivalent of EFdA, read-out: Mean concentration of Example 16A) | concentration at 7 day (in vivo, single IM Example 16A 20 mg/kg equivalent of EFdA, read-out: Mean concentration of Example 16A)
C#C[C@]1(COP(=O)(N[C@@H](Cc2ccccc2)C(=O)OCCCCCCCCCC)OCC(=O)OCCCCCCCCCC)O[C@@H](n2cnc3c(N)nc(F)nc32)C[C@@H]1O (single isomer, unassigned) [Example 9B] | BQL (BQL = below quantification limit, 0.2-0.3 ng/mL for Example 9B and 0.2 ng/mL for EFdA) | BQL (BQL = below quantification limit, 0.2-0.3 ng/mL for Example 9B and 0.2 ng/mL for EFdA) | BQL (BQL = below quantification limit, 0.2-0.3 ng/mL for Example 9B and 0.2 ng/mL for EFdA) | BQL (BQL = below quantification limit, 0.2-0.3 ng/mL for Example 9B and 0.2 ng/mL for EFdA) | BQL (BQL = below quantification limit, 0.2-0.3 ng/mL for Example 9B and 0.2 ng/mL for EFdA) | BQL (BQL = below quantification limit, 0.2-0.3 ng/mL for Example 9B and 0.2 ng/mL for EFdA) | 3.01 ng/mL | 0.663 ng/mL |  |  |  |  |  |  |  | 
C#C[C@]1(COP(=O)(N[C@@H](C)C(=O)OCCCCCCCCCCCCCCCCCCCCCC)Oc2ccccc2)O[C@@H](n2cnc3c(N)nc(F)nc32)C[C@@H]1O (single isomer, unassigned) [Example 16A] |  |  |  |  |  |  |  |  | BQL (BQL = below quantification limit, 0.3 ng/mL for both) | BQL (BQL = below quantification limit, 0.3 ng/mL for both) | BQL (BQL = below quantification limit, 0.3 ng/mL for both) | BQL (BQL = below quantification limit, 0.3 ng/mL for both) | BQL (BQL = below quantification limit, 0.3 ng/mL for both) | BQL (BQL = below quantification limit, 0.3 ng/mL for both) | 3.05 ng/mL | 1.03 ng/mL

Source: patent US20230151049A1, “Compounds Useful in HIV Therapy” (priority 2020, published 2023)
